Key:
[1] = biological target: T1, CDK2 (Homo sapiens, UniProt P24941); test: High-throughput HTRF measurement of cellular endogenous CDK2 level (degradation, DC50/Dmax) in OVCAR3 cells, 6 h; format: cell-based; conditions: 6 h compound treatment, HTRF total CDK2, read-out: DC50_OVCAR3_6h
T1 construct: High-Throughput Measurement of Cellular Endogenous CDK2; endogenous in cells; host or cells: OVCAR3
Procedure: High-Throughput Measurement of Cellular Endogenous CDK2
Effects of compounds on cellular CDK2 level were monitored by a high-throughput HTRF assay.
To determine half maximal degradation concentration (DC50) and maximum degradation level (Dmax) values of compounds, cellular CDK2 level was measured in 96-well format using HTRF total CDK2 cellular kit (Cat #64CDK2TPEG) from Cisbio.
On Day 1, OVCAR3 cells were seeded into 96-well tissue-culture treated plates at 20,000 cells/well in 200 μL and incubated overnight at 37° C. in CO2 atmosphere. On Day 2 cells were treated with compounds at concentration ranging from 0.03 to 1,000 nM using HP D300 digital dispenser. 6 hours after compound treatment, cell culture media was removed by flicking the plate and tapping the plate against clean paper towel. Immediately 30 μL 1× lysis buffer was supplemented from the kit and added to each well and the plate is incubated at room temperature on shaker for 30 min. After homogenization by pipetting up and down, 8 μL cell lysate from 96-well cell culture plate was transferred to 384-well small volume white detection plate. 2 μL premixed detection solution was added and the plate is covered with sealer. To prepare the detection solution, d2 conjugated-CDK2 antibody and Eu-cryptate conjugated CDK2 antibody were diluted into detection buffer following manufacturer's instruction. Detection plates were incubated overnight at room temperature and read on ClarioStar (BMG Labtech) in TR-FRET mode (665 nM and 620 nM). The TR-FRET ratio (665 nM/620 nM) was plotted against the compound concentration and normalized to DMSO controls (0% degradation) and lysis buffer controls (100% degradation). Half maximal degradation concentration (DC 50) […] were calculated with a four-parameter logistic fit using GraphPad Prism (version 8; La Jolla, CA).
In the table below, AA indicates a DC50 of greater than or equal to 0.5 nM but less than 1 nM; A indicates a DC50 of greater than or equal to 1 nM but less than or equal to 10 nM; B indicates a DC50 of greater than 10 nM but less than or equal to 100 nM; C indicates a DC50 of greater than 100 nM but less than or equal to 1 μM; and D indicates a DC50 of greater than 1 μM […] but less than or equal to 5 μM. NT means not tested.

[2] = biological target: T1, CDK2; test: Inhibition of CDK2: phospho-Rb (S807/811) HTRF measurement in OVCAR3 cells, 24 h; format: cell-based; conditions: 24 h compound treatment, read-out: pRB_OVCAR3_24h
In short: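 IC50 came from a four-parameter fit of DMSO-normalized TR-FRET ratios (665/620 nm) reporting phospho-Rb S807/811. Lysates were taken from OVCAR3 cultures treated 24 h with compound (0.3 to 10,000 nM) and incubated 4 h at room temperature with the antibody pair.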

| DC50 [1] [nM] | IC50 [2] [nM] | SMILES |
| --- | --- | --- |
| 10 to 100 | 1 to 100 | Cn1nc(N2CCC(=O)NC2=O)c2cc(F)c(C3CCN(CC4CCN(c5cccc(S(=O)(=O)N6CCC(Nc7ncc(C(F)(F)F)cn7)CC6)c5)CC4)CC3)cc21 [Example 100, 1-(5-fluoro-1-methyl-6-(1-((1-(3-((4-((5-(trifluoromethyl)pyrimidin-2-yl)amino)-piperidin-1-yl)sulfonyl)phenyl)piperidin-4-yl)methyl)piperidin-4-yl)-1H-indazol-3-yl)dihydropyrimidine-2,4(1H,3H)-dione] |
| 1 to 10 | 1 to 100 | Cn1nc(N2CCC(=O)NC2=O)c2ccc(C3CCN(CC4CCN(c5cc(F)cc(S(=O)(=O)N6CCC(Nc7ncc(C(F)(F)F)cn7)CC6)c5)CC4)CC3)cc21 [Example 149, 1-(6-(1-((1-(3-fluoro-5-((4-((5-(trifluoromethyl)pyrimidin-2-yl)amino)piperidin-1-yl)sulfonyl)phenyl)piperidin-4-yl)methyl)piperidin-4-yl)-1-methyl-1H-indazol-3-yl)dihydropyrimidine-2,4(1H,3H)-dione] |
| 10 to 100 | 1 to 100 | Cn1nc(N2CCC(=O)NC2=O)c2cc(F)c(C3CCN(CC4CCN(c5cccc(S(=O)(=O)N6CCC(Nc7ncc(Cl)cn7)CC6)c5)CC4)CC3)cc21 [Example 99, 1-(6-(1-((1-(3-((4-((5-chloropyrimidin-2-yl)amino)piperidin-1-yl)sulfonyl)phenyl)-piperidin-4-yl)methyl)piperidin-4-yl)-5-fluoro-1-methyl-1H-indazol-3-yl)dihydropyrimidine-2,4(1H,3H)-dione] |
| 10 to 100 | 1 to 100 | Cn1nc(N2CCC(=O)NC2=O)c2ccc(C3CCN(CC4CCN(c5cccc(S(=O)(=O)N6CCC(Nc7ncc(C(F)(F)F)cn7)CC6)c5)CC4)CC3)c(F)c21 [Example 94, 1-(7-fluoro-1-methyl-6-(1-((1-(3-((4-((5-(trifluoromethyl)pyrimidin-2-yl)amino)-piperidin-1-yl)sulfonyl)phenyl)piperidin-4-yl)methyl)piperidin-4-yl)-1H-indazol-3-yl)dihydropyrimidine-2,4(1H,3H)-dione] |
| 10 to 100 | 100 to 500 | Cn1nc(N2CCC(=O)NC2=O)c2cc(F)c(C3CCN(Cc4cccc(S(=O)(=O)N5CCC(Nc6ncc(Cl)cn6)CC5)c4)CC3)cc21 [Example 23, 1-(6-(1-(3-((4-((5-chloropyrimidin-2-yl)amino)piperidin-1-yl)sulfonyl)benzyl)-piperidin-4-yl)-5-fluoro-1-methyl-1H-indazol-3-yl)dihydropyrimidine-2,4(1H,3H)-dione] |

Further lines, the compound ahead of its results:

| SMILES | DC50 [1] [nM] | IC50 [2] [nM] |
| --- | --- | --- |
| Cn1nc(N2CCC(=O)NC2=O)c2ccc(C3CCN(CC4CCN(c5cc(S(=O)(=O)N6CCC(Nc7ncc(OC(F)F)cn7)CC6)ccc5C#N)CC4)CC3)c(F)c21 [Example 192, 4-((4-((5-(difluoromethoxy)pyrimidin-2-yl)amino)piperidin-1-yl)sulfonyl)-2-(4-((4-(3-(2,4-dioxotetrahydropyrimidin-1(2H)-yl)-7-fluoro-1-methyl-1H-indazol-6-yl)piperidin-1-yl)methyl)piperidin-1-yl)benzonitrile] | 1 to 10 | 1 to 100 |
| Cn1nc(N2CCC(=O)NC2=O)c2ccc(C3CCN(Cc4ccc(S(=O)(=O)N5CCC(Nc6ncc(C(F)(F)F)cn6)CC5)cc4)CC3)cc21 [Example 64, 1-(1-methyl-6-(1-(4-((4-((5-(trifluoro-methyl)pyrimidin-2-yl)amino)piperidin-1-yl)sulfonyl)benzyl)piperidin-4-yl)-1H-indazol-3-yl)dihydropyrimidine-2,4(1H,3H)-dione] | 1 to 10 | 1 to 100 |
| CN(CCCN1CCC(c2cccc3c2n(C)c(=O)n3C2CCC(=O)NC2=O)CC1)c1cccc(S(=O)(=O)N2CCC(Nc3ncc(C(F)(F)F)cn3)CC2)c1 (stereo not shown) [Example 190, 3-(3-methyl-4-(1-(3-(methyl(3-((4-((5-(trifluoromethyl)pyrimidin-2-yl)amino)piperidin-1-yl)sulfonyl)phenyl)amino)propyl)piperidin-4-yl)-2-oxo-2,3-dihydro-1H-benzo[d]imidazol-1-yl)piperidine-2,6-dione] | 10 to 100 | 1 to 100 |
| Cn1nc(N2CCC(=O)NC2=O)c2ccc(C3CCN(Cc4cccc(S(=O)(=O)N5CCC(Nc6ncc(Cl)cn6)CC5)c4)CC3)cc21 [Example 11, 1-(6-(1-(3-((4-((5-chloropyrimidin-2-yl)amino)piperidin-1-yl)sulfonyl)benzyl)-piperidin-4-yl)-1-methyl-1H-indazol-3-yl)dihydropyrimidine-2,4(1H,3H)-dione] | 1 to 10 | 100 to 500 |
| Cc1ncsc1-c1ccc([C@H](C)NC(=O)[C@@H]2C[C@@H](O)CN2C(=O)[C@@H](NC(=O)C2(F)CC2)C(C)(C)SCC2CCN(Cc3cccc(S(=O)(=O)N4CCC(Nc5ncc(C(F)(F)F)cn5)CC4)c3)CC2)cc1 [Example 8, (2S,4R)-1-((R)-2-(1-fluorocyclopropane-1-carboxamido)-3-methyl-3-(((1-(3-((4-((5-(trifluoromethyl)pyrimidin-2-yl)amino)-piperidin-1-yl)sulfonyl)benzyl)piperidin-4-yl)methyl)thio)butanoyl)-4-hydroxy-N-((S)-1-(4-(4-methylthiazol-5-yl)phenyl)-ethyl)pyrrolidine-2-carboxamide] | 1 to 10 | 100 to 500 |
| O=C1CCC(N2Cc3cc(N4CCC(CN5CCN(c6cccc(S(=O)(=O)N7CCC(Nc8ncc(C(F)(F)F)cn8)CC7)c6)CC5)CC4)ccc3C2=O)C(=O)N1 (stereo not shown) [Example 248, 3-(1-oxo-5-(4-((4-(3-((4-((5-(trifluoromethyl)pyrimidin-2-yl)amino)piperidin-1-yl)sulfonyl)phenyl)piperazin-1-yl)methyl)piperidin-1-yl)isoindolin-2-yl)piperidine-2,6-dione] | 1000 to 5000 | 1 to 100 |
| Cn1nc(N2CCC(=O)NC2=O)c2cc(F)c(C3CCN(Cc4cccc(S(=O)(=O)N5CCC(Nc6ncc(C(F)(F)F)cn6)CC5)c4)CC3)cc21 [Example 16, 1-(5-fluoro-1-methyl-6-(1-(3-((4-((5-(trifluoromethyl)pyrimidin-2-yl)amino)-piperidin-1-yl)sulfonyl)benzyl)piperidin-4-yl)-1H-indazol-3-yl)dihydropyrimidine-2,4(1H,3H)-dione] | 10 to 100 | 1 to 100 |
| Cn1nc(N2CCC(=O)NC2=O)c2ccc(C3CCN(CC(C)(C)Cc4cccc(S(=O)(=O)N5CCC(Nc6ncc(Cl)cn6)CC5)c4)CC3)cc21 [Example 54, 1-(6-(1-(3-(3-((4-((5-chloropyrimidin-2-yl)amino)piperidin-1-yl)sulfonyl)phenyl)-2,2-dimethylpropyl)piperidin-4-yl)-1-methyl-1H-indazol-3-yl)dihydropyrimidine-2,4(1H,3H)-dione] | 1 to 10 | 1 to 100 |
| Cn1nc(N2CCC(=O)NC2=O)c2ccc(C3CCN(CC4(O)CCN(c5cccc(S(=O)(=O)N6CCC(Nc7ncc(Cl)cn7)CC6)c5)CC4)CC3)cc21 [Example 162, 1-(6-(1-((1-(3-((4-((5-chloropyrimidin-2-yl)amino)piperidin-1-yl)sulfonyl)phenyl)-4-hydroxypiperidin-4-yl)methyl)piperidin-4-yl)-1-methyl-1H-indazol-3-yl)dihydropyrimidine-2,4(1H,3H)-dione] | 1 to 10 | 1 to 100 |

— patent US20260167623A1 (NIKANG THERAPEUTICS, INC., priority 2022, published 2026)
